# Molecular target: truncated PI3Kα (p110α/iSH2 p85α), PI3KA_Act (Homo sapiens (Human), UniProt P42336)
# Assay: PI3Kα biochemical kinase assay, fluorescence polarization format (PI3KA_Act)
# Settings: 0.5 nM p110α/iSH2 p85, 1 mM ATP, 30 μM PIP2, 15-min preincubation; Morrison equation fit; read-out: PI3KA_Act Ki
# Method: Enzyme Production for Biochemical Assay: p110α-iSH2 p85α Complex (Full Length p110α and p85α iSH2)(“PI3KA Act”)
# Gene encoding p110α subunit was subcloned into polyhedrine promoter while gene encoding p85α niSH2 domains was subcloned into p10 promoter. […] Recombinant baculovirus was generated using Bac-to-Bac protocol (Life Technologies, Carlsbad, Calif.). Large scale expression was conducted in Sf21 (Life Technologies, Carlsbad, Calif.) cells at a multiplicity of infection (“MOI”)=1 for 48 hours. Cells were lyzed in 50 mM Tris pH 8.0, 250 mM NaCl, 5% glycerol, 0.25 mM TCEP, and 20 mM imidazole. The p110α-niSH2 p85α complex was purified from clarified supernatant using Immobilized Metalo Affinity Chromatography (“IMAC”). The protein was eluted from the column using 50 mM Tris pH 8.0, 200 mM NaCl, 0.25 mM TCEP, and 200 mM imidazole. Following elution p110α-niSH2 p85α complex was dialyzed against 4 liters of 50 mM Tris pH 8.0, 200 mM NaCl, 0.25 mM TCEP, and 40 mM imidazole in the presence of PreScission Protease (1:70 molar ratio of Protease to Protein) and TEV protease (1:40 molar ratio protease to protein) for 16 hours at 4° C. The protein was further purified using reverse IMAC to remove cleaved histidine tag and contaminants captured during initial IMAC purification. The mixture of p110α-iSH2 p85α complex and cleaved nSH2 was recovered in reverse IMAC 40 mM imidazole flow through and 60 mM imidazole wash fractions. Those fractions were pulled together and loaded on Superdex 200 26/60 SEC column equilibrated in 25 mM Tris, pH 8.0, 100 mM NaCl, 2% glycerol, and 2 mM TCEP.
# The enzymatic reactions were conducted in 50 μL volumes in 96-well plates. […] The reactions were incubated for 30 min at room temperature, stopped with EDTA pH 8 (10 mM final concentration). […] The plate was shaken for 30 minutes and fluorescence polarization values were measured on an LJL Analyst HT plate reader (Molecular Devices, Sunnyvale, Calif.).
# Chain of truncated PI3Kα (p110α/iSH2 p85α), PI3KA_Act (P42336 whole entry, the tested form may be a part): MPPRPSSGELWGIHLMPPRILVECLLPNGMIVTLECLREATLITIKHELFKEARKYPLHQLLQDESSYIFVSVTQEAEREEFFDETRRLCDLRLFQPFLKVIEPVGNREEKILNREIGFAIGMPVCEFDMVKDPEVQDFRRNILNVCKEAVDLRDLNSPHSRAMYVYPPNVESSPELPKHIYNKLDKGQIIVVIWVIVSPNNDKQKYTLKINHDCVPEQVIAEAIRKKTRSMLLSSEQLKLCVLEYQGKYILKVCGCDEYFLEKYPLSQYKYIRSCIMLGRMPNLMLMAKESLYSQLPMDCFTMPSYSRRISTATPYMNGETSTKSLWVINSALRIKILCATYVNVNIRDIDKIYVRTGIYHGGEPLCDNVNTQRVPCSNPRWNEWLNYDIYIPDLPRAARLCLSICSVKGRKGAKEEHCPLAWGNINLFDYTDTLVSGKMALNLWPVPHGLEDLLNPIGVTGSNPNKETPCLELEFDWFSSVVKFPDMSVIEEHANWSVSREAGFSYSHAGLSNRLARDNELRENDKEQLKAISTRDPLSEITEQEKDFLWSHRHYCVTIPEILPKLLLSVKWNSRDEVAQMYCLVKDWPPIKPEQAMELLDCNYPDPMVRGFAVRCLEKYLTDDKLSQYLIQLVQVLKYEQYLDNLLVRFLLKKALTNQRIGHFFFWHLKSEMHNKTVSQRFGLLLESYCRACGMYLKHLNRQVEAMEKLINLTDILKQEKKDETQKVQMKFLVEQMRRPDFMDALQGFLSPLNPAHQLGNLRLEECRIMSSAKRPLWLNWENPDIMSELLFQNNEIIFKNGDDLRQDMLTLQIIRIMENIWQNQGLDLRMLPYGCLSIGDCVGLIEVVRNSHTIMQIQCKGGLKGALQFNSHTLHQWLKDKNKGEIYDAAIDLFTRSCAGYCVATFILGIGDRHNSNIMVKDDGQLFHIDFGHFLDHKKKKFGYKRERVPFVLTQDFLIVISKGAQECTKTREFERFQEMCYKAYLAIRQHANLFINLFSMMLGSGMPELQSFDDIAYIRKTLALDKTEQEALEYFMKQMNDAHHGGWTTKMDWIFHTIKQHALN
row,Compound,Ki [nM]
1,"CC(C)(C)OC(=O)N1CC[C@](C)(Nc2cc(-c3cnc(N)nc3)nc(N3CCOCC3)n2)C1 [Example 40, tert-butyl (3S)-3-{[2′-amino-2-(morpholin-4-yl)-4,5′-bipyrimidin-6-yl]amino}-3-methylpyrrolidine-1-carboxylate]",0.095
2,"Nc1ncc(-c2cc(N[C@@]3(CO)CCN(C(=O)[C@@H]4CC4(F)F)C3)nc(N3CCOCC3)n2)cn1 [Example 46, [(3S)-3-{[2′-amino-2-(morpholin-4-yl)-4,5′-bipyrimidin-6-yl]amino}-3-(hydroxymethyl)pyrrolidin-1-yl][(1S)-2,2-difluorocyclopropyl]methanone]",< 0.018
3,"CC(C)(C)NC(=O)N1CC[C@](CO)(Nc2cc(-c3cnc(N)nc3)nc(N3CCOCC3)n2)C1 [Example 48, (3S)-3-{[2′-amino-2-(morpholin-4-yl)-4,5′-bipyrimidin-6-yl]amino}-N-tert-butyl-3-(hydroxymethyl)pyrrolidine-1-carboxamide]",0.714
4,"C[C@H]1COCCN1c1nc(NC2(CO)CN(C(=O)OC(C)(C)C)C2)cc(-c2cnc(N)nc2)n1 [Example 49, tert-butyl 3-({2′-amino-2-[(3S)-3-methylmorpholin-4-yl]-4,5′-bipyrimidin-6-yl}amino)-3-(hydroxymethyl)azetidine-1-carboxylate]",0.083
5,"CC(C)[C@@H](N)C(=O)N1CC[C@](CO)(Nc2cc(-c3cnc(N)nc3)nc(N3CCOCC3)n2)C1 [Example 50, (2R)-2-amino-1-[(3S)-3-{[2′-amino-2-(morpholin-4-yl)-4,5′-bipyrimidin-6-yl]amino}-3-(hydroxymethyl)pyrrolidin-1-yl]-3-methylbutan-1-one]",0.137
6,"CC(C)S(=O)(=O)N1CC[C@](CO)(Nc2cc(-c3cnc(N)nc3)nc(N3CCOCC3)n2)C1 [Example 52, [(3S)-3-{[2′-amino-2-(morpholin-4-yl)-4,5′-bipyrimidin-6-yl]amino}-1-(propan-2-ylsulfonyl)pyrrolidin-3-yl]methanol]",0.084
7,"C[C@H]1COCCN1c1nc(NC2(CO)CNC2)cc(-c2cnc(N)nc2)n1 [Example 54, [3-({2′-amino-2-[(3S)-3-methylmorpholin-4-yl]-4,5′-bipyrimidin-6-yl}amino)azetidin-3-yl]methanol]",2.67
8,"Nc1ncc(-c2cc(N[C@@]3(CO)CCN(C(=O)[C@H](O)c4ccccc4)C3)nc(N3CCOCC3)n2)cn1 [Example 55, (2R)-1-[(3S)-3-{[2′-amino-2-(morpholin-4-yl)-4,5′-bipyrimidin-6-yl]amino}-3-(hydroxymethyl)pyrrolidin-1-yl]-2-hydroxy-2-phenylethanone]",0.371
9,"Nc1ncc(-c2cc(N[C@@]3(CO)CCN(C(=O)[C@@H](O)c4ccccc4)C3)nc(N3CCOCC3)n2)cn1 [Example 60, (2S)-1-[(3S)-3-{[2′-amino-2-(morpholin-4-yl)-4,5′-bipyrimidin-6-yl]amino}-3-(hydroxymethyl)pyrrolidin-1-yl]-2-hydroxy-2-phenylethanone]",12.7
10,"CC(C)(C)CC(=O)N1CC[C@](CO)(Nc2cc(-c3cnc(N)nc3)nc(N3CCOCC3)n2)C1 [Example 61, 1-[(3S)-3-{[2′-amino-2-(morpholin-4-yl)-4,5′-bipyrimidin-6-yl]amino}-3-(hydroxymethyl)pyrrolidin-1-yl]-3,3-dimethylbutan-1-one]",0.054
11,"Nc1ncc(-c2cc(N[C@@]3(CO)CCN(C(=O)c4ccccn4)C3)nc(N3CCOCC3)n2)cn1 [Example 63, [(3S)-3-{[2′-amino-2-(morpholin-4-yl)-4,5′-bipyrimidin-6-yl]amino}-3-(hydroxymethyl)pyrrolidin-1-yl](pyridin-2-yl)methanone]",0.062
12,"COC(=O)N1CC[C@](CO)(Nc2cc(-c3cnc(N)nc3)nc(N3CCOC[C@@H]3C)n2)C1 [Example 65, methyl (3S)-3-({2′-amino-2-[(3S)-3-methylmorpholin-4-yl]-4,5′-bipyrimidin-6-yl}amino)-3-(hydroxymethyl)pyrrolidine-1-carboxylate]",< 0.018
13,"Nc1ncc(-c2cc(N[C@@]3(CO)CCN(CC(F)F)C3)nc(N3CCOCC3)n2)cn1 [Example 67, [(3S)-3-{[2′-amino-2-(morpholin-4-yl)-4,5′-bipyrimidin-6-yl]amino}-1-(2,2-difluoroethyl)pyrrolidin-3-yl]methanol]",1.52
14,"Nc1ncc(-c2cc(N[C@@]3(CO)CCN(CC4CC4)C3)nc(N3CCOCC3)n2)cn1 [Example 71, [(3S)-3-{[2′-amino-2-(morpholin-4-yl)-4,5′-bipyrimidin-6-yl]amino}-1-(cyclopropylmethyl)pyrrolidin-3-yl]methanol]",9.47

# Second part, the molecule after the results:
row,Ki [nM],Compound
1,0.128,"CC(C)(C)OC(=O)N1CC(CO)(Nc2cc(-c3cnc(N)nc3)nc(N3CCOCC3)n2)C1 [Example 41, tert-butyl 3-{[2′-amino-2-(morpholin-4-yl)-4,5′-bipyrimidin-6-yl]amino}-3-(hydroxymethyl)azetidine-1-carboxylate]"
2,0.651,"CC(=O)N1CC(CO)(Nc2cc(-c3cnc(N)nc3)nc(N3CCOCC3)n2)C1 [Example 42, 1-[3-{[2′-amino-2-(morpholin-4-yl)-4,5′-bipyrimidin-6-yl]amino}-3-(hydroxymethyl)azetidin-1-yl]ethanone]"
3,1.97,"Nc1ncc(-c2cc(NC3(CO)CNC3)nc(N3CCOCC3)n2)cn1 [Example 43, (3-{[2′-amino-2-(morpholin-4-yl)-4,5′-bipyrimidin-6-yl]amino}azetidin-3-yl)methanol]"
4,0.032,"CC(C)OC(=O)N1CC[C@](CO)(Nc2cc(-c3cnc(N)nc3)nc(N3CCOCC3)n2)C1 [Example 44, propan-2-yl (3S)-3-{[2′-amino-2-(morpholin-4-yl)-4,5′-bipyrimidin-6-yl]amino}-3-(hydroxymethyl)pyrrolidine-1-carboxylate]"
5,0.025,"CC1(OC(=O)N2CC[C@](CO)(Nc3cc(-c4cnc(N)nc4)nc(N4CCOCC4)n3)C2)CC1 [Example 47, 1-methylcyclopropyl (3S)-3-{[2′-amino-2-(morpholin-4-yl)-4,5′-bipyrimidin-6-yl]amino}-3-(hydroxymethyl)pyrrolidine-1-carboxylate]"
6,0.619,"CC(C)[C@H](N)C(=O)N1CC[C@](CO)(Nc2cc(-c3cnc(N)nc3)nc(N3CCOCC3)n2)C1 [Example 51, (2S)-2-amino-1-[(3S)-3-{[2′-amino-2-(morpholin-4-yl)-4,5′-bipyrimidin-6-yl]amino}-3-(hydroxymethyl)pyrrolidin-1-yl]-3-methylbutan-1-one]"
7,< 0.018,"Nc1ncc(-c2cc(N[C@@]3(CO)CCN(C(=O)C4(F)CC4)C3)nc(N3CCOCC3)n2)cn1 [Example 56, [(3S)-3-{[2′-amino-2-(morpholin-4-yl)-4,5′-bipyrimidin-6-yl]amino}-3-(hydroxymethyl)pyrrolidin-1-yl](1-fluorocyclopropyl)methanone]"
8,0.116,"CC(C)CC(=O)N1CC[C@](CO)(Nc2cc(-c3cnc(N)nc3)nc(N3CCOCC3)n2)C1 [Example 57, 1-[(3S)-3-{[2′-amino-2-(morpholin-4-yl)-4,5′-bipyrimidin-6-yl]amino}-3-(hydroxymethyl)pyrrolidin-1-yl]-3-methylbutan-1-one]"
9,0.2,"COC(=O)N1CC[C@](CO)(Nc2cc(-c3cnc(N)nc3C(F)(F)F)nc(N3CCOCC3)n2)C1 [Example 58, methyl (3S)-3-{[2′-amino-2-(morpholin-4-yl)-4′-(trifluoromethyl)-4,5′-bipyrimidin-6-yl]amino}-3-(hydroxymethyl)pyrrolidine-1-carboxylate]"
10,0.18,"COC(=O)N1CC[C@](CO)(Nc2cc(-c3cnc(N)nc3C)nc(N3CCOCC3)n2)C1 [Example 59, methyl (3S)-3-{[2′-amino-4′-methyl-2-(morpholin-4-yl)-4,5′-bipyrimidin-6-yl]amino}-3-(hydroxymethyl)pyrrolidine-1-carboxylate]"
11,< 0.018,"CCOC(=O)N1CC[C@](CO)(Nc2cc(-c3cnc(N)nc3)nc(N3CCOC[C@@H]3C)n2)C1 [Example 64, ethyl (3S)-3-({2′-amino-2-[(3S)-3-methylmorpholin-4-yl]-4,5′-bipyrimidin-6-yl}amino)-3-(hydroxymethyl)pyrrolidine-1-carboxylate]"
12,0.15,"CCOC(=O)N1CC[C@](CO)(Nc2nc(N3CCOCC3)nc(-c3cnc(N)nc3)c2F)C1 [Example 69, ethyl (3S)-3-{[2′-amino-5-fluoro-2-(morpholin-4-yl)-4,5′-bipyrimidin-6-yl]amino}-3-(hydroxymethyl)pyrrolidine-1-carboxylate]"
13,0.031,"CC(C)OC(=O)N1CC[C@](CO)(Nc2nc(N3CCOCC3)nc(-c3cnc(N)nc3)c2F)C1 [Example 70, propan-2-yl (3S)-3-{[2′-amino-5-fluoro-2-(morpholin-4-yl)-4,5′-bipyrimidin-6-yl]amino}-3-(hydroxymethyl)pyrrolidine-1-carboxylate]"
